Paper PMC8375220 (Peptides, 2021)
Read-outs that look alike come from different tables or passages of the source. Where no end group is shown, it is not given here.

Assays:
[1] = biological target: SARS-CoV-2 spike RBD (Severe acute respiratory syndrome coronavirus 2, UniProt P0DTC2); experiment: biochemical; type: binding
[2] = system: Human umbilical vein endothelial cells (HUVECs); experiment: HUVEC viability; type: cell-based
[3] = system: SARS-CoV-2 spike pseudovirions
[4] = system: BALB/c mice; experiment: In vivo toxicity after intranasal administration; design: species or system mouse; details: 2.5 mg/kg single intranasal dose
[5] = system: SARS-CoV-2 spike pseudovirion; details: cited from earlier work

Substance: GKGDFRI [GK-7, GKGDFRI]
- Kd [1]: 25.1 nM
- HUVEC survival ([2]; 24 h, doses up to 200 μg/mL, CCK-8): did not affect cell survival
- fold of highest non-cytotoxic dose (200 μg/mL) over pseudovirion IC50 ([2]; HUVECs 24 h versus IC50 2.96 μg/mL): approximately 68 fold
- IC50, inhibition of SARS-CoV-2 spike pseudovirion infection ([3]; spike pseudovirions, 12 h): 2.96 µg/mL
- effect on ALT, AST, blood urea and creatinine contents [4]: minor effects
- HE staining of major organs ([4]; day 7): no pathological changes
- effect on RBC, WBC and platelet counts in the blood ([4]; day 7): minor effects
- effect on organ index (heart, liver, spleen, lungs, kidneys) ([4]; day 7): minor effects

Substance: LL37
- IC50, SARS-CoV-2 spike pseudovirion infection [5]: 4.74 µg/mL

Substance: ACE2
- IC50, inhibition of SARS-CoV-2 spike pseudovirion infection [3]: 0.067 µg/mL
